According to patent US12662481B2, “Substituted 2-morpholinopyridine derivatives as ATR kinase inhibitors” (Repare Therapeutics Inc., priority 2019, dated 2026):
Read-outs that look alike come from different tables or passages of the source.

What was measured:
ATR/ATRIP = ATR/ATRIP (Homo sapiens, UniProt Q13535); test: ATR/ATRIP enzymatic assay (AlphaScreen, phosphorylation of p53)
Experimental: Detection of ATR kinase activity utilized the AlphaScreen system to measure the phosphorylation of the substrate protein p53. […] Plates were incubated at room temperature in the dark for 4 hours and read on a BMG Polarstar using AlphaScreen dedicated filters. […] IC50 values were determined using a 4-parameter fit algorithm.

[1] = tested on: ATR (CHK1 phosphorylation at Ser345 in HeLa S3 cells); test: ATR assay in HeLa S3 cells (CHK1 p-Ser345 AlphaScreen SureFire, gemcitabine); format: cell-based; conditions: HeLa S3 whole cell assay, 3.5 to 4 hours
Experimental: Media was then replaced by 20 μL per well Opti-MEM no phenol red and 5 μL of serial diluted compounds were added to the assay plate for a final DMSO concentration of 0.5%. […] The plate was incubated at 37° C., 5% CO2 for 3.5 to 4 hours.

[2] = Homo sapiens, gemcitabine 1.5 μM

Chain of ATR/ATRIP (Q13535 whole entry): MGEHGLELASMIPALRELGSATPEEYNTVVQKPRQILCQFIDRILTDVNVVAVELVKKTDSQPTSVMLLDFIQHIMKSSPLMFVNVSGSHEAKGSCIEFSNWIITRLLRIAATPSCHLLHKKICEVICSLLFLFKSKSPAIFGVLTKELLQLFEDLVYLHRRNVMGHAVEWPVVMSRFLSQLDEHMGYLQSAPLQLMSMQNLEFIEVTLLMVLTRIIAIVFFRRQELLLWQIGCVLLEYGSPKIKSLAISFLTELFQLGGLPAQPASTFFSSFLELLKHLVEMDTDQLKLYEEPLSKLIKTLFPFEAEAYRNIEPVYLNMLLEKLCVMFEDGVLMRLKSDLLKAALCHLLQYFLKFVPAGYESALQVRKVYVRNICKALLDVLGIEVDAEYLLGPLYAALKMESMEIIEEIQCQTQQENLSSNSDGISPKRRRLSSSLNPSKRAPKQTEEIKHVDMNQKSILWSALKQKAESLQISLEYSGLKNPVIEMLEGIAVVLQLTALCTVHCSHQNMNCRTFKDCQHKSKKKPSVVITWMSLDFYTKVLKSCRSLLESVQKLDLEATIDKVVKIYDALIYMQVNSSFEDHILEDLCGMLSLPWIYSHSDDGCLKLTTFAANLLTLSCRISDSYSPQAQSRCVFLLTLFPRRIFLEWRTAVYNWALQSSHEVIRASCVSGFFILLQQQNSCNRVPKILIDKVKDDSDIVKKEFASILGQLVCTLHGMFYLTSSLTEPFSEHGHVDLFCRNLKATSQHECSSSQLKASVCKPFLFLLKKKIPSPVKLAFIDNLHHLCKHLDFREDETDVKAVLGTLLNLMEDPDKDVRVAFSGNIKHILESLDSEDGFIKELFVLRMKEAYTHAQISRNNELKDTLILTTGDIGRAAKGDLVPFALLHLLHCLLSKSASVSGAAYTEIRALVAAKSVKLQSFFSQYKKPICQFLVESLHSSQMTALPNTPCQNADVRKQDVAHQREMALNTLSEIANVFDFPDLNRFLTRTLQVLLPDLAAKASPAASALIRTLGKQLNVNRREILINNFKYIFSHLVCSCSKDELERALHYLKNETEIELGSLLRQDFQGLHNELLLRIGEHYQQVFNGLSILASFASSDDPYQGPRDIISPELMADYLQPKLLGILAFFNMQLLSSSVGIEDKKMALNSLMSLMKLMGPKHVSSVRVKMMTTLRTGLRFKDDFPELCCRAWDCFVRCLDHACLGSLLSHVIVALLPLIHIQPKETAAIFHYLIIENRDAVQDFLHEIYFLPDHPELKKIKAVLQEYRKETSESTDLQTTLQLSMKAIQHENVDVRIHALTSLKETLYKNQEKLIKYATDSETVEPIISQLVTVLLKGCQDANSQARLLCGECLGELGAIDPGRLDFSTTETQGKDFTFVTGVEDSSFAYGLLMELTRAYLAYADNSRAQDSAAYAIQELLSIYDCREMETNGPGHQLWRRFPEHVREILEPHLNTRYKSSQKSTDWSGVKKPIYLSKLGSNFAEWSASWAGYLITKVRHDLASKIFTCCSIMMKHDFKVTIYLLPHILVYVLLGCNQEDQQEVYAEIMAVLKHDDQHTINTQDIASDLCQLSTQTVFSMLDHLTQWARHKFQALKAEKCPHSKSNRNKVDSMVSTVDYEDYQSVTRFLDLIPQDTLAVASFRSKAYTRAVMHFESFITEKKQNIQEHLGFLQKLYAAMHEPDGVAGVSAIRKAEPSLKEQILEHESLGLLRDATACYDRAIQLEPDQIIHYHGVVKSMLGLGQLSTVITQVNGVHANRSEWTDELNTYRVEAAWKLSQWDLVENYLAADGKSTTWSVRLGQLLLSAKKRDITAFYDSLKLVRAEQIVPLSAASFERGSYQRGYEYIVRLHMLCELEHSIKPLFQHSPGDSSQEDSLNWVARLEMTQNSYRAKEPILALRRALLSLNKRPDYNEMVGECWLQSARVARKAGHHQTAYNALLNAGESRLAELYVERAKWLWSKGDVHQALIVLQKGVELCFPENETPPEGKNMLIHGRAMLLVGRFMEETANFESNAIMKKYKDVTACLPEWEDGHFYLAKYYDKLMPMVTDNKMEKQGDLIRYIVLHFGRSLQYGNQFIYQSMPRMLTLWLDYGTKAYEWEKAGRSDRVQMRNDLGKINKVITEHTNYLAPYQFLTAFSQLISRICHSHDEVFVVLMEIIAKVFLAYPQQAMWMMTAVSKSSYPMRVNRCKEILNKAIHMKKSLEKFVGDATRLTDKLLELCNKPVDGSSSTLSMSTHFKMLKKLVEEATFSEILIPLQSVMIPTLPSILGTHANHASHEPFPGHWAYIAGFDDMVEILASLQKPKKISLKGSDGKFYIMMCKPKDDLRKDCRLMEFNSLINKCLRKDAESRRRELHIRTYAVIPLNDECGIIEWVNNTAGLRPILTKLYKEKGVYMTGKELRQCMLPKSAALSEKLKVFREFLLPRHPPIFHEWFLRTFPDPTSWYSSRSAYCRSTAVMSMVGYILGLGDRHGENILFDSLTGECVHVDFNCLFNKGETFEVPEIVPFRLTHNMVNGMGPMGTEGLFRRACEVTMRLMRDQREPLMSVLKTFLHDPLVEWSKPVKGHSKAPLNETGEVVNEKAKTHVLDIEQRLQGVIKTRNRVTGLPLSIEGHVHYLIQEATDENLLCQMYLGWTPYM
Chain of ATR/ATRIP (Q8WXE1 whole entry partner): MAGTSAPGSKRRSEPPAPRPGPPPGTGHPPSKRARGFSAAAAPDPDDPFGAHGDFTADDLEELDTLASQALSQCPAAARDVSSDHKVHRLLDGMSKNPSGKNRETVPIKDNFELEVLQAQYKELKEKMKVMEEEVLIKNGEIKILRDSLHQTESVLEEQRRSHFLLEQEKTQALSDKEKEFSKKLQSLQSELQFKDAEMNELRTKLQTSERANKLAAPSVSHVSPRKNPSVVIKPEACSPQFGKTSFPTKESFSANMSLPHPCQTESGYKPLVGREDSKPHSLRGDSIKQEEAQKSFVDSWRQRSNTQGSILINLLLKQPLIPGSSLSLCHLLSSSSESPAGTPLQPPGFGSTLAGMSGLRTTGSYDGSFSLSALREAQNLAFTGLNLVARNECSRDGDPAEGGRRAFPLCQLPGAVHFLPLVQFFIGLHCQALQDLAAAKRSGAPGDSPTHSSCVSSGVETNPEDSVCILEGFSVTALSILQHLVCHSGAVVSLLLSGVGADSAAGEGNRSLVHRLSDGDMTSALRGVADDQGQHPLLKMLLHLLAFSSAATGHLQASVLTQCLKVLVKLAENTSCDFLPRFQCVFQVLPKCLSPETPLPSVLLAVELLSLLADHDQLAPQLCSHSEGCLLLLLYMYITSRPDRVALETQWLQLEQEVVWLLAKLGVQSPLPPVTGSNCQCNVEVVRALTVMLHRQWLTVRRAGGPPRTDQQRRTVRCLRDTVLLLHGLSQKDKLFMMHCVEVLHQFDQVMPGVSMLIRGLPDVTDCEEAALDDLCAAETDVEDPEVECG

Compound	IC50 [1, 2] [nM]	other results
Cc1ccncc1-c1cc(N2CCOC[C@H]2C)nc2c1ccn2-c1cc[nH]n1 [Compound 9]	–	IC50 (ATR/ATRIP): 371 nM
C[C@@H]1COCCN1c1cc(-c2nncs2)c2cnn(-c3cc[nH]n3)c2n1 [Compound 33]	–	IC50 (ATR/ATRIP): 154 nM
CC(C#N)c1cc(N2CCOC[C@H]2C)nc2c1cnn2-c1cc[nH]n1 (some centres unmarked) [Compound 47]	–	IC50 (ATR/ATRIP; read-out: ATR IC50, recombinant ATR/ATRIP 0.63 nM, 25 nM GST-p53, 3 μM ATP, 1 hour room temperature): 12 nM
C[C@@H]1COCCN1c1cc([C@]2(O)C[C@H]3CC[C@@H](C2)O3)c2cnn(-c3cc[nH]n3)c2n1 [Compound 121]	0.9	–
COC1(c2cc(N3CCOC[C@H]3C)nc3c2cnn3-c2cc[nH]n2)CCSCC1 [Compound 147]	0.8	–
C[C@@H]1COCCN1c1cc(-c2cccnc2C(F)(F)F)c2c(=O)[nH]n(-c3ccn[nH]3)c2n1 [Compound 151]	–	IC50 ([1]; gemcitabine […]): 9.1 nM

Continued, in another order:

IC50 [1, 2] [nM]	Compound	other results
17	C[C@@H]1COCCN1c1cc(-c2ccccc2S(N)(=O)=O)c2cnn(-c3cc[nH]n3)c2n1 [Compound 126, (R)-2-(6-(3-methylmorpholino)-1-(1H-pyrazol-3-yl)-1H-pyrazolo[3,4-b]pyridin-4-yl)benzenesulfonamide]	–
41	C[C@@H]1COCCN1c1cc(N2CCOCC2=O)c2cnn(-c3cc[nH]n3)c2n1 [Compound 134]	–
